Results published in ChEMBL document CHEMBL2074442, “Recognition of beta-lactam antibiotics by rat peptide transporters, PEPT1 and PEPT2, in LLC-PK1 cells” (Am J Physiol, 1997).

T1: Solute carrier family 15 member 2 (Rattus norvegicus, UniProt Q63424)
T1 sequence (Q63424 whole entry): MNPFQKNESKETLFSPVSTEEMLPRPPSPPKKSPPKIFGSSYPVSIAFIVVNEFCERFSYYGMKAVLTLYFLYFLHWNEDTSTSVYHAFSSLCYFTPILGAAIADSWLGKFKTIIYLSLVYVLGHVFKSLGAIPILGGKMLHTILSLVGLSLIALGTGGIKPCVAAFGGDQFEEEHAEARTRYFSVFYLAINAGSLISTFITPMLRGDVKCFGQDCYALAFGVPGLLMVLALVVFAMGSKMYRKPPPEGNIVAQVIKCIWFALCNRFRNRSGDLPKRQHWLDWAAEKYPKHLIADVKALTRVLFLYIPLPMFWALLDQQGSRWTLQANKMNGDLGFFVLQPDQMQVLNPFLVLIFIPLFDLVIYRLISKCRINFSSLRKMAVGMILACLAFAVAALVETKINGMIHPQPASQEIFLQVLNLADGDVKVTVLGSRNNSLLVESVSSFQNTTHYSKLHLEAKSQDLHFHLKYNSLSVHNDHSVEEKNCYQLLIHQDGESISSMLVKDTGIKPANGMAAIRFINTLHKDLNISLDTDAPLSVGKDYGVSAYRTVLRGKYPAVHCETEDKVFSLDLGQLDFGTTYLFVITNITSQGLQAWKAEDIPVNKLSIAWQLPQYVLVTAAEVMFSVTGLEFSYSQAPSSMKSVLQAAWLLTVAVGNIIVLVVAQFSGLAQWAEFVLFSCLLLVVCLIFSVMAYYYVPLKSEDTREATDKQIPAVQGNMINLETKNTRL

T2: Solute carrier family 15 member 1 (Rattus norvegicus, UniProt P51574)
T2 sequence (P51574 whole entry): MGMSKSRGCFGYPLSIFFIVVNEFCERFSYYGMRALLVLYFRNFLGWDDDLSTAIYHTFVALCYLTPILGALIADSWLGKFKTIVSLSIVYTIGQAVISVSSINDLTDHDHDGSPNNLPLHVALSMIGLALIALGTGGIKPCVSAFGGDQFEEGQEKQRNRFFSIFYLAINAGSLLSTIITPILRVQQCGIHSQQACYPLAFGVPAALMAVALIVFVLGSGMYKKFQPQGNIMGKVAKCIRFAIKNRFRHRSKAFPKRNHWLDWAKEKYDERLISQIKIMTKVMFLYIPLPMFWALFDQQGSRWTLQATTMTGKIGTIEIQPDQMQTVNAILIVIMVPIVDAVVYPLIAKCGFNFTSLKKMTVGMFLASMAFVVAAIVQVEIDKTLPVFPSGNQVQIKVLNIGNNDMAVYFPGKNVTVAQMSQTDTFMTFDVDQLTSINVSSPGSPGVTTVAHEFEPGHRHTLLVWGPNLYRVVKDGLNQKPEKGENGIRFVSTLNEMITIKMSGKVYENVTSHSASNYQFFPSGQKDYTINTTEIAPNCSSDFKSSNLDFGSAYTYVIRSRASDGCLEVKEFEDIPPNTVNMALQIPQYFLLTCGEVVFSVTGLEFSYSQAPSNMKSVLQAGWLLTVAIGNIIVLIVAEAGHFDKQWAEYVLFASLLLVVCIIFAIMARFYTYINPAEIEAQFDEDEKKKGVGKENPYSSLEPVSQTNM

B1: Solute carrier family 15 member 1 (Rattus norvegicus), P51574 (protein)
chain: T2 sequence (P51574 whole entry)
B2: Solute carrier family 15 member 2 (Rattus norvegicus), Q63424 (protein)
chain: T1 sequence (Q63424 whole entry)

Columns and labels:
Assay type in all cases: functional, cell-based
[1] = target: T1, Solute carrier family 15 member 2; assay: TP_TRANSPORTER: inhibition of Gly-Sar uptake in PEPT2-expressing LLC-PK1 cells
[2] = target: T2, Solute carrier family 15 member 1; assay: TP_TRANSPORTER: inhibition of Gly-Sar uptake in PEPT1-expressing LLC-PK1 cells
[3] = substrate: CN(CC(=O)O)C(=O)CN; assay: TP_TRANSPORTER: uptake in PEPT1-expressing LLC-PK1 cells
[4] = substrate: CN(CC(=O)O)C(=O)CN; assay: TP_TRANSPORTER: uptake in PEPT2-expressing LLC-PK1 cells

Molecule | Ki [1] [µM] | Ki [2] [µM] | Km [3] [µM] | Km [4] [µM]
CC1(C)S[C@@H]2[C@H](NC(=O)C3(N)CCCCC3)C(=O)N2[C@H]1C(=O)O [CYCLACILLIN] | 27 | 168 |  | 
C=CC1=C(C(=O)O)N2C(=O)[C@@H](NC(=O)/C(=N\O)c3csc(N)n3)[C@H]2SC1 [CEFDINIR] | 20100 | 11900 |  | 
CC1(C)S[C@@H]2[C@H](NC(=O)[C@H](N)c3ccc(O)cc3)C(=O)N2[C@H]1C(=O)O [AMOXICILLIN] | 179 | 13000 |  | 
CC1(C)S[C@@H]2[C@H](NC(=O)[C@H](N)c3ccccc3)C(=O)N2[C@H]1C(=O)O [AMPICILLIN] | 669 | 47800 |  | 
CC1=C(C(=O)O)N2C(=O)[C@@H](NC(=O)[C@H](N)c3ccccc3)[C@H]2SC1 [CEPHALEXIN ANHYDROUS] | 49 | 4500 |  | 
Nc1nc(/C(=C/CC(=O)O)C(=O)N[C@@H]2C(=O)N3C(C(=O)O)=CCS[C@H]23)cs1 [CEFTIBUTEN] | 1340 | 597 |  | 
C=CC1=C(C(=O)O)N2C(=O)[C@@H](NC(=O)/C(=N\OCC(=O)O)c3csc(N)n3)[C@H]2SC1 [CEFIXIME] | 11900 | 6920 |  | 
CC1=C(C(=O)O)N2C(=O)[C@@H](NC(=O)[C@H](N)C3=CCC=CC3)[C@H]2SC1 [CEPHRADINE] | 47 | 8540 |  | 
CC1=C(C(=O)O)N2C(=O)[C@@H](NC(=O)[C@H](N)c3ccc(O)cc3)[C@H]2SC1 [CEFADROXIL] | 3 | 2170 |  | 
B1 |  |  | 1100 | 
B2 |  |  |  | 110
